The values that follow come from the Biogen ADME set (Fang et al. 2023).

In brackets after ≈: the same amount, converted by molar mass.

The conditions of this data set: for aqueous solubility: pH 6.8.

For `Cc1ccc2[nH]c(C3CCN(C)CC3)nc2c1`, the MDR1-MDCK efflux ratio is 2.88; the intrinsic clearance, human liver microsomes turned out to be 88.3 mL/min/kg; the intrinsic clearance, rat liver microsomes came to 685 mL/min/kg; the aqueous solubility was found to be 57.3 µg/mL (≈ 250 µM).
Regarding `COC(=O)C1=NOC2(CCN(CCCCCF)CC2)C1`, the MDR1-MDCK efflux ratio worked out at 0.463; the intrinsic clearance, human liver microsomes was determined as 199 mL/min/kg; the intrinsic clearance, rat liver microsomes came out at 713 mL/min/kg.
For the compound `CN1CCC[C@@H]1CCO[C@](C)(c1ccccc1)c1ccc(Cl)cc1`, the intrinsic clearance, human liver microsomes was found to be 24.8 mL/min/kg; the intrinsic clearance, rat liver microsomes was 1090 mL/min/kg; the aqueous solubility came to 98.7 µg/mL (≈ 287 µM).
On to `COCCCNc1ncc(-c2cc(C)no2)c(C(C)C)n1`, for which the MDR1-MDCK efflux ratio was determined as 0.439; the intrinsic clearance, human liver microsomes was 33.4 mL/min/kg; the intrinsic clearance, rat liver microsomes was found to be 5960 mL/min/kg.
As to `O=C(c1cccs1)N1C[C@@H]2CCCN(C(=O)c3cccs3)[C@@H]2C1`, the MDR1-MDCK efflux ratio was found to be 2.37; the intrinsic clearance, human liver microsomes was determined as 5.78 mL/min/kg; the intrinsic clearance, rat liver microsomes was determined as 151 mL/min/kg; the aqueous solubility amounted to 63.1 µg/mL (≈ 182 µM).
As to `Cc1ccc2c(C(=O)N(C)C)cc(-c3cnc(C(C)C)nc3)nc2c1C`, the MDR1-MDCK efflux ratio turned out to be 1.95; the intrinsic clearance, human liver microsomes was 16.7 mL/min/kg; the intrinsic clearance, rat liver microsomes amounted to 836 mL/min/kg; the aqueous solubility was 2.43 µg/mL (≈ 6.97 µM).
Turning to `O=C(NC1CC1)c1cccc2cccnc12`, the MDR1-MDCK efflux ratio was 0.708; the intrinsic clearance, human liver microsomes is 5.23 mL/min/kg; the intrinsic clearance, rat liver microsomes came to 31.3 mL/min/kg; the aqueous solubility is 33.8 µg/mL (≈ 159 µM).
Compound `COCc1nc(C2CCN(CCO)CC2)no1` showed an intrinsic clearance, human liver microsomes of no more than 4.74 mL/min/kg; an intrinsic clearance, rat liver microsomes of 72.4 mL/min/kg; an aqueous solubility of 36.1 µg/mL (≈ 150 µM).
For the compound `O=c1c(-c2ccc(F)cc2)c(-c2ccncc2)[nH]n1-c1ccc(Cl)cc1`, the MDR1-MDCK efflux ratio came to 1.46; the intrinsic clearance, human liver microsomes was no more than 4.74 mL/min/kg; the intrinsic clearance, rat liver microsomes is no more than 10.7 mL/min/kg; the aqueous solubility is 21.8 µg/mL (≈ 59.6 µM).
In turn, `Cc1cccnc1NC(=O)c1csc(-c2ccccc2)n1` showed an intrinsic clearance, human liver microsomes of 54 mL/min/kg; an intrinsic clearance, rat liver microsomes of 462 mL/min/kg; an aqueous solubility of 43.2 µg/mL (≈ 146 µM).
Take `C[C@@]12CCCN1C(=O)[C@H](C1CCCCC1)NC2=O`: the MDR1-MDCK efflux ratio worked out at 2.65; the intrinsic clearance, human liver microsomes is no more than 4.74 mL/min/kg; the intrinsic clearance, rat liver microsomes was found to be 20.8 mL/min/kg.
On to `OCc1ccc(Cn2cc(-c3cc(F)ccc3-n3cccn3)nn2)cc1`, for which the MDR1-MDCK efflux ratio turned out to be 2.09; the intrinsic clearance, human liver microsomes was 15.5 mL/min/kg; the intrinsic clearance, rat liver microsomes amounted to 114 mL/min/kg; the aqueous solubility was determined as 34.5 µg/mL (≈ 98.9 µM).
Turning to `O=C(c1n[nH]c2c1COCC2)N1CCC2(C=Cc3ccccc32)CC1`, the MDR1-MDCK efflux ratio was found to be 1.5; the intrinsic clearance, human liver microsomes is 4.85 mL/min/kg; the intrinsic clearance, rat liver microsomes worked out at 870 mL/min/kg.
On to `COc1cc(-c2cn(C3CCc4c(F)cccc4N(CC(F)(F)F)C3=O)nn2)ccc1-n1cnc(C)c1` (stereo not drawn), for which the intrinsic clearance, human liver microsomes was 26.1 mL/min/kg and the intrinsic clearance, rat liver microsomes was determined as 49.2 mL/min/kg.
With `Cc1nc(NCc2sccc2C)n(C)n1`, the MDR1-MDCK efflux ratio was found to be 0.795; the intrinsic clearance, human liver microsomes was no more than 4.74 mL/min/kg; the intrinsic clearance, rat liver microsomes was 21.6 mL/min/kg.
As for `Cc1ccc(S(=O)(=O)N2CCOc3ccncc32)cc1`, the MDR1-MDCK efflux ratio stood at 0.71; the intrinsic clearance, human liver microsomes came out at 107 mL/min/kg; the intrinsic clearance, rat liver microsomes was 2090 mL/min/kg.
Turning to `Cc1nc2ncc3c(n2n1)CCCC3=O`, the MDR1-MDCK efflux ratio stood at 0.752; the intrinsic clearance, human liver microsomes is no more than 4.74 mL/min/kg; the intrinsic clearance, rat liver microsomes is no more than 10.7 mL/min/kg.
With `Cc1cn(-c2cc(NC(=O)c3ccc(C)c(Nc4nccc(-c5cccnc5)n4)c3)cc(C(F)(F)F)c2)cn1`, the MDR1-MDCK efflux ratio turned out to be 8.9.
For the compound `Cc1ccnc(Oc2cc(N)ccc2C)c1`, the MDR1-MDCK efflux ratio was found to be 0.542; the intrinsic clearance, human liver microsomes is no more than 4.74 mL/min/kg; the intrinsic clearance, rat liver microsomes was 230 mL/min/kg; the aqueous solubility stood at 35.3 µg/mL (≈ 165 µM).
The like results for `COc1c(N)ncnc1N1CCCC(C)(C)CC1` were, in that order, 0.912, 37.2 mL/min/kg, 1210 mL/min/kg and 38.4 µg/mL (≈ 153 µM).
Regarding `CCN1CCOC(C(=O)N2CCC(c3cn[nH]c3)CC2)C1` (stereo not drawn), the MDR1-MDCK efflux ratio was 3.51 and the intrinsic clearance, human liver microsomes is no more than 4.74 mL/min/kg.
`Cc1ccc(NC(=O)CN2[C@H](Cc3ccccc3)C[C@]3(C)NC(=O)CCC[C@H]23)cc1F`: the MDR1-MDCK efflux ratio worked out at 12.4; the fraction unbound, human plasma worked out at 0.00729; the fraction unbound, rat plasma turned out to be 0.023; the intrinsic clearance, human liver microsomes was determined as 499 mL/min/kg. In addition, the intrinsic clearance, rat liver microsomes is 3320 mL/min/kg.
Regarding `C#CCNC(=O)N(Cc1ccccc1F)C1CCOCC1`, the MDR1-MDCK efflux ratio stood at 2.15; the intrinsic clearance, human liver microsomes was no more than 4.74 mL/min/kg; the intrinsic clearance, rat liver microsomes was 35.5 mL/min/kg.
For `O=C(c1sc(N2CCOCC2)nc1-c1ccccc1)N1CCCCC1`, the MDR1-MDCK efflux ratio was 1.18; the intrinsic clearance, human liver microsomes was found to be 45 mL/min/kg; the intrinsic clearance, rat liver microsomes was determined as 845 mL/min/kg; the aqueous solubility was determined as 58.4 µg/mL (≈ 163 µM).
Take `CCCNC(=O)C1(Cc2ccccn2)CCOCC1`: the MDR1-MDCK efflux ratio came to 10.9; the intrinsic clearance, human liver microsomes was no more than 4.74 mL/min/kg; the intrinsic clearance, rat liver microsomes was no more than 10.7 mL/min/kg; the aqueous solubility is 85.3 µg/mL (≈ 325 µM).
On to `Cc1ccc(NC(=O)c2ccn(C(C)C)n2)cc1N1C(=O)CCC1=O`, for which the intrinsic clearance, human liver microsomes was no more than 4.74 mL/min/kg and the intrinsic clearance, rat liver microsomes was 19.2 mL/min/kg.
`Oc1cncc(/C=C/c2nc(-c3ccncc3)no2)c1` showed an intrinsic clearance, human liver microsomes of 31.8 mL/min/kg and an intrinsic clearance, rat liver microsomes of 239 mL/min/kg.
Turning to `CCc1c[nH]c2ncnc(N3CCC(CN4CCN(C)CC4)CC3)c12`, the MDR1-MDCK efflux ratio was found to be 8.23; the fraction unbound, human plasma amounted to 0.535; the intrinsic clearance, human liver microsomes is no more than 4.74 mL/min/kg.
Consider `Cc1ccc(NC(=O)CN2CCCC(c3nc4ccccc4o3)C2)cc1C` (stereo not drawn), for which the MDR1-MDCK efflux ratio amounted to 1.08; the intrinsic clearance, human liver microsomes turned out to be 216 mL/min/kg; the intrinsic clearance, rat liver microsomes amounted to 2610 mL/min/kg; the aqueous solubility came to 10 µg/mL (≈ 27.5 µM).
As to `O=C(Cc1cccc(I)c1)N1CC(CO)C1`, the MDR1-MDCK efflux ratio turned out to be 1.59; the intrinsic clearance, human liver microsomes was no more than 4.74 mL/min/kg; the intrinsic clearance, rat liver microsomes is no more than 10.7 mL/min/kg; the aqueous solubility amounted to 42.1 µg/mL (≈ 127 µM).
For the compound `Fc1ccc(-c2cc(C3CCNCC3)ccn2)cc1`, the intrinsic clearance, human liver microsomes is no more than 4.74 mL/min/kg; the intrinsic clearance, rat liver microsomes is no more than 10.7 mL/min/kg; the aqueous solubility was determined as 41 µg/mL (≈ 160 µM).
In the case of `Cc1cc(C)c(NC(=O)CN(C)c2ccc(C#N)nc2)c(C)c1`, the MDR1-MDCK efflux ratio turned out to be 6.69; the intrinsic clearance, human liver microsomes stood at 14.4 mL/min/kg; the intrinsic clearance, rat liver microsomes was 75.7 mL/min/kg.
In the case of `O=C1CCCN1c1ccc(NCc2ccccn2)nc1`, the MDR1-MDCK efflux ratio stood at 1.31; the intrinsic clearance, human liver microsomes is no more than 4.74 mL/min/kg; the intrinsic clearance, rat liver microsomes is no more than 10.7 mL/min/kg; the aqueous solubility turned out to be 54.4 µg/mL (≈ 203 µM).
The like results for `CN(C)C1CN(c2nc(-c3cnccn3)nc3sc4c(c23)CCCC4)C1` were, in that order, 1.17, 92.5 mL/min/kg, 2720 mL/min/kg and 37 µg/mL (≈ 101 µM).
For the compound `Clc1cccc(Cl)c1Cc1n[nH]c(CCCn2cccn2)n1`, the MDR1-MDCK efflux ratio was 13.3; the intrinsic clearance, human liver microsomes worked out at 99.9 mL/min/kg; the intrinsic clearance, rat liver microsomes worked out at 581 mL/min/kg.
As to `CCCc1nn(CCCN2CCCCC2)c(=O)o1`, the MDR1-MDCK efflux ratio is 0.542; the intrinsic clearance, human liver microsomes came to 13.6 mL/min/kg; the intrinsic clearance, rat liver microsomes came to 1600 mL/min/kg.
`CC(C)C(=O)N1CCC(Nc2ncnc3ccsc23)CC1`: the MDR1-MDCK efflux ratio came to 6.55; the intrinsic clearance, human liver microsomes is no more than 4.74 mL/min/kg; the intrinsic clearance, rat liver microsomes is 19.2 mL/min/kg; the aqueous solubility worked out at 48 µg/mL (≈ 158 µM).
`O=C(Nc1ccccc1)Nc1ccccc1`: the intrinsic clearance, human liver microsomes came to 16 mL/min/kg; the intrinsic clearance, rat liver microsomes was found to be 91.4 mL/min/kg; the aqueous solubility came out at 3.9 µg/mL (≈ 18.4 µM).
As for `Cc1cc(CN2CC(O)(CC#N)C2)ccc1F`, the MDR1-MDCK efflux ratio is 0.602; the intrinsic clearance, human liver microsomes was 15 mL/min/kg; the intrinsic clearance, rat liver microsomes was determined as 703 mL/min/kg.
In the same order, the values of `CN(Cc1nncn1C)C1CCN(c2ccccc2F)CC1` are 2.06, no more than 4.74 mL/min/kg and 89.4 mL/min/kg.
Turning to `CNc1ncc2cc(-c3ccc(-c4cccc(C)n4)cc3Cl)c(=O)n(C[C@H]3OC[C@H](N)CO3)c2n1`, the intrinsic clearance, human liver microsomes is no more than 4.74 mL/min/kg and the intrinsic clearance, rat liver microsomes was 170 mL/min/kg.
Regarding `CCOc1cc(N(C)CC2CCN(C)CC2)ncn1`, the MDR1-MDCK efflux ratio worked out at 1.55; the intrinsic clearance, human liver microsomes was determined as 20.1 mL/min/kg; the intrinsic clearance, rat liver microsomes was found to be 561 mL/min/kg.
As for `N#Cc1ccc(COc2cnc3ccccc3n2)cc1`, the MDR1-MDCK efflux ratio amounted to 0.507 and the aqueous solubility was 0.19 µg/mL (≈ 0.727 µM).
`CSCC(=O)N1CCc2[nH]nc(-c3cccc(F)c3)c2C1`: the intrinsic clearance, human liver microsomes is 57 mL/min/kg; the intrinsic clearance, rat liver microsomes was found to be 960 mL/min/kg; the aqueous solubility is 49.5 µg/mL (≈ 162 µM).
For the compound `O=C(NCc1cnn(-c2ccccc2)c1)C1CCC1`, the MDR1-MDCK efflux ratio was found to be 0.723; the intrinsic clearance, human liver microsomes was no more than 4.74 mL/min/kg; the intrinsic clearance, rat liver microsomes came out at 117 mL/min/kg; the aqueous solubility stood at 31.7 µg/mL (≈ 124 µM).
For the compound `Cc1cccc(NC(=O)c2ccccc2-c2ccccc2)n1`, the MDR1-MDCK efflux ratio was determined as 0.551; the intrinsic clearance, human liver microsomes was 64.2 mL/min/kg; the intrinsic clearance, rat liver microsomes came to 686 mL/min/kg; the aqueous solubility came to 33.1 µg/mL (≈ 115 µM).
For the compound `CC(C)(C)c1ccc(C(=O)Nc2cn3cc(-n4ccnc4)ccc3n2)cc1`, the MDR1-MDCK efflux ratio was determined as 2.85; the intrinsic clearance, human liver microsomes came out at 60.4 mL/min/kg; the intrinsic clearance, rat liver microsomes amounted to 25.6 mL/min/kg; the aqueous solubility was 2.75 µg/mL (≈ 7.65 µM).
